# Tested on: human peripheral blood mononuclear cells (PBMCs)
# Experiment: ELISA assay of immunocyte activator: induction of IFN-γ in human PBMCs
# Assay type: cell-based
# Conditions: 24 h, 37 °C; no pretreatment marked; read-out: EC50 IFN-γ ratio (inducing human PBMCs to produce IFN-γ)
# Procedure: The immune activity of each compound is represented by the function of inducing human peripheral blood mononuclear cells (PBMCs) to produce the immune cytokine IFN-γ by, and the EC50 values thereof are shown in Table 3.
# • 1) Peripheral blood samples from healthy human volunteer were collected into heparin anticoagulant tubes to reach 5 mL of fresh blood, and PBS was added at a ratio of 1:1 to dilute the blood (2 mL+2 mL in conventional blood collection tubes). • 2) 5 mL of lymphocyte separation medium was put in a 15 mL sterile centrifuge tube for use. • 3) The diluted blood was aspirated and slowly added from 1 cm above the separation medium along the tube wall, so that the diluted blood overlaid the separation medium and formed a distinct interface therewith. • 4) The centrifuge tube was centrifuged at 2000 rpm at room temperature for 20 min. Now five layers formed in the centrifuge tube: the top layer was plasma layer, and the layer between the plasma layer and the lymphocyte separation medium was the lymphocyte layer as a white film. • 5) The mononuclear cell layer as a white film in the middle was aspirated carefully and mononuclear cells were aspirated as many as possible. The mononuclear cells were washed by more than 5 volumes of PBS twice, and each time, the mononuclear cells were centrifuged at 1500 rpm for 10 min. • 6) The supernatant was removed, then 1 mL of 1640 medium was added and mixed uniformly. A small amount of the mixture was taken for cell counting.
# The prepared PBMCs were plated in a 96-well plate (Costar, 3894) (2×10^5 cells per well). Each compound in Table 3 was taken and added into the wells with plated cells at ten concentrations with uniform gradient distribution (0.0001-10 μM, diluted with […] medium containing […]).
row,SMILES,EC50 [nM]
1,C=CC(=O)Nc1cc(Nc2nccc(-c3cn(C)c4ccccc34)n2)c(OC)cc1N(C)CCN(C)CCCCCCNC(=O)C(CCCCNC(=O)OCc1ccc(NC(=O)[C@H](CCCNC(N)=O)NC(=O)[C@@H](NC(=O)CCOCCOCCOCCOCCNC(=O)CCC(=O)N2Cc3ccccc3C#Cc3ccccc32)C(C)C)cc1)NC(=O)CCC(=O)NCc1ccc(Cn2c(=O)[nH]c3c(N)nc(OCCOC)nc32)cc1 (some centres unmarked) [Compound K37],220

# Same assay, conditions: Homo sapiens, PBMC, 24 h, 37 °C, Note c: sample pretreated with Cathepsin-B (10 μg) in PBS, room temperature, 3 h, read-out: EC50 IFN-γ ratio (inducing human PBMCs to produce IFN-γ)
row,SMILES,EC50 [nM]
1,C=CC(=O)Nc1cc(Nc2nccc(-c3cn(C)c4ccccc34)n2)c(OC)cc1N(C)CCN(C)CCOCCOCCOCCn1cc(Cn2c(=O)n(C(=O)NCCNC(=O)OCc3ccc(NC(=O)[C@H](CCCNC(N)=O)NC(=O)[C@@H](NC(=O)CCOCCOCCOCCOCCNC(=O)CCC(=O)N4Cc5ccccc5C#Cc5ccccc54)C(C)C)cc3)c3c(N)nc(OCCCC)nc32)nn1 [Compound K38],90
2,C=C(CC(=O)OC)C(=O)NCc1ccc(Cn2c(=O)n(C(=O)NCCNC(=O)OCc3ccc(NC(=O)[C@H](CCCNC(N)=O)NC(=O)[C@@H](NC(=O)CCOCCOCCOCCOCCNC(=O)CCC(=O)N4Cc5ccccc5C#Cc5ccccc54)C(C)C)cc3)c3c(N)nc(OCCOC)nc32)cc1 [Compound K39],1

# Same assay, conditions: Homo sapiens, PBMC, 24 h, 37 °C, no pretreatment marked, read-out: EC50 IFN-γ ratio (inducing human PBMCs to produce IFN-γ)
row,SMILES,EC50 [nM]
1,COCCOc1nc(N)c2[nH]c(=O)n(Cc3ccc(CNC(=O)CCC(=O)NC(CCCCc4cn(CCOCCOCCOCCNC(=O)CCN5C(=O)C=CC5=O)nn4)C(=O)NCCOCCOCCOCCNC(=O)OC4CC/C=C/CCC4)cc3)c2n1 (centres unmarked) [Compound K26],2
2,COCCOc1nc(N)c2[nH]c(=O)n(Cc3ccc(CNC(=O)CCC(=O)NC(CCCCc4cn(CCCCN5CCN(CCCNC(=S)N6CCCC(n7nc(-c8ccc(Oc9ccccc9)cc8)c8c(N)ncnc87)C6)CC5)nn4)C(=O)N4CCN(C(=O)OCc5ccc(NC(=O)[C@H](CCCNC(N)=O)NC(=O)[C@@H](NC(=O)CCOCCOCCOCCOCCN6C(=O)C=CC6=O)C(C)C)cc5)CC4)cc3)c2n1 (some centres unmarked) [Compound K27],250
3,COCCOc1nc(N)c2[nH]c(=O)n(Cc3ccc(CNC(=O)CCC(=O)NC(CCCCNC(=O)OCc4ccc(NC(=O)[C@H](CCCNC(N)=O)NC(=O)[C@@H](NC(=O)CCCCCN5C(=O)C=CC5=O)C(C)C)cc4)C(=O)NCCOCCOCCOCCOc4ccc(-c5nnc(C)nn5)cc4)cc3)c2n1 (some centres unmarked) [Compound K29],31
4,COCCOc1nc(N)c2[nH]c(=O)n(Cc3ccc(CNC(=O)CCC(=O)NC(CCCCNC(=O)OCc4ccc(NC(=O)[C@H](CCCNC(N)=O)NC(=O)[C@@H](NC(=O)CCCCCN5C(=O)C=CC5=O)C(C)C)cc4)C(=O)NCCOCCOCCOCCNC(=O)OC4CC/C=C/CCC4)cc3)c2n1 (some centres unmarked) [Compound K30],59
5,COCCOc1nc(N)c2[nH]c(=O)n(Cc3ccc(CNC(=O)CCC(=O)NC(CCCCc4cn(CCOCCOCCOCCNC(=O)CCOCCOCCNC(=O)OCC5C6CCC#CCCC65)nn4)C(=O)N[C@H](C(=O)N[C@@H](CCCNC(N)=O)C(=O)Nc4ccc(COC(=O)NC[C@H](C)c5ccc(-c6c(O)cc(C)c7[nH]c(=O)c8sccc8c67)cc5)cc4)C(C)C)cc3)c2n1 (some centres unmarked) [Compound K31],29
6,C#Cc1c(F)ccc2cc(O)cc(-c3ncc4c(N5CC6CCC(C5)N6C(=O)OCc5ccc(NC(=O)[C@H](CCCNC(N)=O)NC(=O)[C@@H](NC(=O)C(CCCCc6cn(CCOCCOCCOCCNC(=O)CCN7C(=O)C=CC7=O)nn6)NC(=O)CCC(=O)NCc6ccc(Cn7c(=O)[nH]c8c(N)nc(OCCOC)nc87)cc6)C(C)C)cc5)nc(OC[C@@]56CCCN5C[C@H](F)C6)nc4c3F)c12 (some centres unmarked) [Compound K32],160
7,C#Cc1c(F)ccc2cc(O)cc(-c3c(Cl)cc4c(N5CC6CCC(C5)N6C(=O)OCc5ccc(NC(=O)[C@H](CCCNC(N)=O)NC(=O)[C@@H](NC(=O)C(CCCCc6cn(CCOCCOCCOCCNC(=O)CCN7C(=O)C=CC7=O)nn6)NC(=O)CCC(=O)NCc6ccc(Cn7c(=O)[nH]c8c(N)nc(OCCOC)nc87)cc6)C(C)C)cc5)nc(OC[C@@]56CCCN5C[C@H](F)C6)nc4c3F)c12 (some centres unmarked) [Compound K33],180
8,CCCCOc1nc(N)c2[nH]c(=O)n(Cc3ccc(NC(=S)Nc4sc5c(c4C(=O)N[C@@H](CCCCNC(=O)OCc4ccc(NC(=O)[C@H](CCCNC(N)=O)NC(=O)[C@@H](NC(=O)CCCCCN6C(=O)C=CC6=O)C(C)C)cc4)C(=O)NCCOCCOCCOCCOCCNC(=O)CCC(=O)N4Cc6ccccc6C#Cc6ccccc64)CCCC5)cc3)c2n1 [Compound K34],131
9,C=CC(=O)Nc1cc(Nc2nccc(-c3cn(C)c4ccccc34)n2)c(OC)cc1N(C)CCN(C)CCCCCCNC(=O)C(CCCCc1cn(CCOCCOCCOCCNC(=O)CCC(=O)N2Cc3ccccc3C#Cc3ccccc32)nn1)NC(=O)CCC(=O)NCc1ccc(Cn2c(=O)[nH]c3c(N)nc(OCCOC)nc32)cc1 (centres unmarked) [Compound K35],260
10,C=CC(=O)Nc1cc(Nc2nccc(-c3cn(C)c4ccccc34)n2)c(OC)cc1N(C)CCN(C)CCCCCCNC(=O)[C@@H](CCCCn1cc(COCCOCCOCCOCCNC(=O)CCC(=O)N2Cc3ccccc3C#Cc3ccccc32)nn1)NC(=O)COCCOCCOCCn1cc(Cn2c(=O)[nH]c3c(N)nc(OCCCC)nc32)nn1 [Compound K36],110
11,COCCOc1nc(N)c2[nH]c(=O)n(Cc3ccc(CNC(=O)CCC(=O)NC(CCCCc4cnnn4CCOCCOCCOCCN=C=S)C(=O)NCCCC(=O)Nc4ccc(C#CC#N)cc4)cc3)c2n1 (centres unmarked) [Compound K40],1
12,C=CC(=O)Nc1cc(Nc2nccc(-c3cn(C)c4ccccc34)n2)c(OC)cc1N(C)CCN(C)CCCCCCNC(=N)C(CCCCc1cn(CCOCCOCCOCCN=C=S)nn1)NC(=O)CCC(=O)NCc1ccc(Cn2c(=O)[nH]c3c(N)nc(OCCOC)nc32)cc1 (centres unmarked) [Compound K46],90
13,CCCCOc1nc(N)c2[nH]c(=O)n(Cc3ccc(NC(=S)Nc4sc5c(c4C(=O)NC(CCCCN=C=S)C(=O)NCCOCCOCCOCCOCCNC(=O)CCC(=O)N4Cc6ccccc6C#Cc6ccccc64)CCCC5)cc3)c2n1 (centres unmarked) [Compound K47],150
14,COCCOc1nc(N)c2[nH]c(=O)n(Cc3ccc(CNC(=O)CCC(=O)NC(CCCCc4cn(CCOCCOCCOCCN=C=S)nn4)C(=O)NCCOCCOCCOCCNC(=O)OC4CC/C=C/CCC4)cc3)c2n1 (centres unmarked) [Compound K48],89
15,C=C(CN1CCC(Cn2c(=O)[nH]c3c(N)nc(O[C@@H](C)CCC)nc32)CC1)C(=O)NCCOCCOCCOCCOCCNC(=O)CCC(=O)N1Cc2ccccc2C#Cc2ccccc21 [Compound K49],11
16,C=C(CN1CCC(Cn2c(=O)[nH]c3c(N)nc(OCCCC)nc32)CC1)C(=O)NCCOCCOCCOCCOCCNC(=O)CCC(=O)N1Cc2ccccc2C#Cc2ccccc21 [Compound K50],23

# Same assay, conditions: Homo sapiens, PBMC, 24 h, pH 5, 24 h, 37 °C; Note d: sample pretreated by hydrolysis, acetate buffer pH 5, 37 °C, 72 h; read-out: EC50 IFN-γ ratio (inducing human PBMCs to produce IFN-γ)
row,SMILES,EC50 [nM]
1,CCCCOc1nc(N)c2c(n1)n(CCCc1cn(CCOCCOCCOCCNC(=O)CCN3C(=O)C=CC3=O)nn1)c(=O)n2COC(=O)OC(C)C [Compound K41],2

# Same assay, conditions: Homo sapiens, PBMC, 24 h, pH 6, 24 h, 37 °C, Note b: sample pretreated with equimolar glutathione, PBS pH 6, 37 °C, read-out: EC50 IFN-γ ratio (inducing human PBMCs to produce IFN-γ)
row,SMILES,EC50 [nM]
1,C=C(COC(=O)n1c(=O)n(CCCc2cn(CCOCCOCCOCCOCCN=[N+]=[N-])nn2)c2nc(OCCCC)nc(N)c21)C(=O)OCC [Compound K44],2
2,C=C(COC(=O)n1c(=O)n(Cc2ccc(CNC(=O)CCc3cn(CCOCCOCCOCCOCCN=[N+]=[N-])nn3)cc2)c2nc(OCCOC)nc(N)c21)C(=O)OCC [Compound K45],10

# Same assay, conditions: Homo sapiens, PBMC; 24 h, 37 °C; Note d: sample pretreated by hydrolysis, acetate buffer pH 5, 37 °C, 72 h; read-out: EC50 IFN-γ ratio (inducing human PBMCs to produce IFN-γ)
row,SMILES,EC50 [nM]
1,CC[C@@]1(O)C(=O)OCc2c1cc1n(c2=O)Cc2c-1nc1cc(F)c(C)c3c1c2[C@@H](NC(=O)CNC(=O)OCn1c(=O)n(Cc2ccc(CNC(=O)CCc4cn(CCOCCOCCOCCNC(=O)CCN5C(=O)C=CC5=O)nn4)cc2)c2nc(OCCOC)nc(N)c21)CC3 [Compound K42],7
